Results taken from patent US8729088B2, “Toll-like receptor modulators and treatment of diseases” (The Regents of the University of California, priority 2009, dated 2014).

Legend:
C57BL/6 mice [1] = experiment: Thioglycolate induced peritonitis (peritoneal neutrophil infiltration); settings: 50 nmoles i.v. for three days before thioglycolate
Procedure: (§1) Peritoneal cells were collected four hours after TG injection. Total cells were counted by haematocytometer and neutrophils were morphologically identified.
(§2) 4 hours post TG injection total peritoneal cells were harvested and counted. Neutrophils were identified morphologically and counted.
(§3) One day after the last treatment, mice received intraperitoneal injection of 2 ml thioglycollate medium. […] Three hours after the thioglycollate injection, neutrophil infiltration to the peritoneum was evaluated.

C57BL/6 mice [2] = settings: mouse, in vivo
Procedure: as §1, §2, §3

[3] = tested on: pro-inflammatory cytokines (IL-6, TNF-α) in sera; experiment: In vivo kinetics of pro-inflammatory cytokine induction after intravenous injection; design: species or system mouse; settings: 200 nmol per animal i.v.
Procedure: The pharmacokinetics of pro inflammatory cytokine induction by TLR7 conjugates was examined using 6- to 8-week old C57BL/6 mice. […] Blood samples were collected 2, 4, 6, 24 or 48 hours after injections. Sera were separated and kept at −20° C. until use.

TLR7 = experiment: Cytokine induction in BMDM from wild type and TLR7 deficient mice; assay type: cell-based, mouse; settings: BMDM from TLR7 deficient mice
Procedure: In vitro measurements of cytokine induction were performed using the mouse leukemic monocyte macrophage cell line, RAW264.7. […] BMDM were prepared from C57BL/6 and TLR7 deficient mice as described in Wu, C. C et al., (2007) “Immunotherapeutic activity of a conjugate of a Toll-like receptor 7 ligand”, Proc Natl Acad Sci USA 104, 3990-5.
In general, RAW264.7 cells or BMDM were incubated with various concentrations of conjugates for 18 hours at 37° C., 5% CO2 and culture supernatants were collected. The levels of cytokines (IL-6, IL-12 or TNF-α in the supernatants were determined by ELISA (BD Biosciences Pharmingen, La Jolla, Calif.) (Cho, H. J et al., “Immunostimulatory DNA-based vaccines induce cytotoxic lymphocyte activity by a T-helper cell-independent mechanism” [see comments], Nat Biotechnol 18, 509-14 (2000)), and the results presented in FIG. 2A-D. Data are mean±SEM of triplicates and are representative of three independent experiments. Minimum detection levels of these cytokines were 15 pg/mL.

mice = settings: cited from earlier work
Solubility observations = assay type: physicochemical

COCCOc1nc(N)c2nc(O)n(Cc3ccccc3)c2n1 [SM, 9-benzyl-8-hydroxy-2-(2-methoxyethoxy) adenine, reference compound]
neutrophils recruited to the peritoneum (C57BL/6 mice [1]): reduction | total cells recruited to the peritoneum (C57BL/6 mice [1]): reduction | adverse reaction compared to TG (C57BL/6 mice [2]): no additional adverse reaction | course of serum cytokine levels [3]: declined rapidly after 2 hours | IL-12 and IL-6 induction (TLR7): little or no IL-12 and IL-6 | adverse effects in mice (mice; Hayashi et al. 2008): anorexic effects and hypothermia | minimum dose that induced the anorectic reaction (mice; mucosal administration): 50 nmoles per mice | solubility in aqueous solution (Solubility observations): insoluble
